In PubChem BioAssay (NCI):
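48-hour exposure; five concentrations; linearly interpolated endpoints. Abbreviation: GI50, concentration required for 50% inhibition of growth. The concentration for full growth arrest is given as TGI.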

Key:
Experiment in all cases: growth of human tumour cells (NCI), 48 h
T-47D breast = test system: T-47D breast
MCF7 breast = test system: MCF7 breast
HT29 colon = test system: HT29 colon
PC-3 prostate = test system: PC-3 prostate
A549 NSCLC = test system: A549 NSCLC
BT-549 breast = test system: BT-549 breast
RXF 393 renal = test system: RXF 393 renal
RPMI-8226 leukemia = test system: RPMI-8226 leukemia
UACC-257 melanoma = test system: UACC-257 melanoma
SNB-19 CNS = test system: SNB-19 CNS
HOP-62 NSCLC = test system: HOP-62 NSCLC
SF-539 CNS = test system: SF-539 CNS
OVCAR-4 ovarian = test system: OVCAR-4 ovarian
OVCAR-5 ovarian = test system: OVCAR-5 ovarian
SR leukemia = test system: SR leukemia
SK-OV-3 ovarian = test system: SK-OV-3 ovarian
MALME-3M melanoma = test system: MALME-3M melanoma
CCRF-CEM leukemia = test system: CCRF-CEM leukemia
SNB-75 CNS = test system: SNB-75 CNS
NCI-H460 lung = test system: NCI-H460 lung
SK-MEL-5 melanoma = test system: SK-MEL-5 melanoma
NCI-H23 lung = test system: NCI-H23 lung
EKVX NSCLC = test system: EKVX NSCLC
U251 CNS = test system: U251 CNS
K-562 leukemia = test system: K-562 leukemia
KM12 colon = test system: KM12 colon
HS 578T breast = test system: HS 578T breast
A498 renal = test system: A498 renal
MDA-MB-435 = test system: MDA-MB-435
NCI-H226 lung = test system: NCI-H226 lung
SF-295 CNS = test system: SF-295 CNS
SF-268 CNS = test system: SF-268 CNS
ACHN renal = test system: ACHN renal
UO-31 renal = test system: UO-31 renal
HCT-116 colon = test system: HCT-116 colon
M14 melanoma = test system: M14 melanoma
MOLT-4 leukemia = test system: MOLT-4 leukemia
COLO 205 colon = test system: COLO 205 colon
HCC-2998 colon = test system: HCC-2998 colon
CAKI-1 renal = test system: CAKI-1 renal
SN12C renal = test system: SN12C renal
786-0 renal = test system: 786-0 renal
UACC-62 melanoma = test system: UACC-62 melanoma
HOP-92 NSCLC = test system: HOP-92 NSCLC
SK-MEL-28 melanoma = test system: SK-MEL-28 melanoma
HL-60(TB) leukemia = test system: HL-60(TB) leukemia
TK-10 renal = test system: TK-10 renal
OVCAR-8 ovarian = test system: OVCAR-8 ovarian
MDA-MB-231 breast = test system: MDA-MB-231 breast
DU-145 prostate = test system: DU-145 prostate
SK-MEL-2 melanoma = test system: SK-MEL-2 melanoma
NCI/ADR-RES ovarian = test system: NCI/ADR-RES ovarian
SW-620 colon = test system: SW-620 colon
NCI-H522 lung = test system: NCI-H522 lung
IGROV1 ovarian = test system: IGROV1 ovarian
HCT-15 colon = test system: HCT-15 colon

**Q.** How did the GI50 (T-47D breast) turn out when `O=C(c1ccc(Oc2ccccc2)cc1Cl)c1c[nH]c2ncnc(N[C@@H]3CC[C@@H](CO)OC3)c12` was run?
**A.** 0.908 µM

**Q.** What about the TGI (T-47D breast) of the same compound?
**A.** 6.83 µM

**Q.** And the GI50 (MCF7 breast)?
**A.** 1.47 µM

**Q.** And the TGI (MCF7 breast)?
**A.** 13 µM

**Q.** What about the GI50 (HT29 colon) of the same compound?
**A.** 0.0434 µM

**Q.** And the TGI (HT29 colon)?
**A.** 1.47 µM

**Q.** And the GI50 (PC-3 prostate)?
**A.** 3.16 µM

**Q.** What about the TGI (PC-3 prostate) of the same compound?
**A.** 13.5 µM

**Q.** What about the GI50 (A549 NSCLC) of the same compound?
**A.** 0.724 µM

**Q.** And the TGI (A549 NSCLC)?
**A.** 9.92 µM

**Q.** And the GI50 (BT-549 breast)?
**A.** 1.66 µM

**Q.** What about the TGI (BT-549 breast) of the same compound?
**A.** 4.17 µM

**Q.** And the GI50 (RXF 393 renal)?
**A.** 0.748 µM

**Q.** And the TGI (RXF 393 renal)?
**A.** 2.77 µM

**Q.** And the GI50 (RPMI-8226 leukemia)?
**A.** 1.76 µM

**Q.** What about the TGI (RPMI-8226 leukemia) of the same compound?
**A.** 9.53 µM

**Q.** And the GI50 (UACC-257 melanoma)?
**A.** 0.0389 µM

**Q.** What about the TGI (UACC-257 melanoma) of the same compound?
**A.** 0.395 µM

**Q.** What about the GI50 (SNB-19 CNS) of the same compound?
**A.** 1.81 µM

**Q.** And the TGI (SNB-19 CNS)?
**A.** 15.3 µM

**Q.** What about the GI50 (HOP-62 NSCLC) of the same compound?
**A.** 0.302 µM

**Q.** And the TGI (HOP-62 NSCLC)?
**A.** 11 µM

**Q.** And the GI50 (SF-539 CNS)?
**A.** 1.36 µM

**Q.** And the TGI (SF-539 CNS)?
**A.** 4.85 µM

**Q.** And the GI50 (OVCAR-4 ovarian)?
**A.** 5.02 µM

**Q.** And the TGI (OVCAR-4 ovarian)?
**A.** 23 µM

**Q.** And the GI50 (OVCAR-5 ovarian)?
**A.** 0.255 µM

**Q.** And the TGI (OVCAR-5 ovarian)?
**A.** 2.75 µM

**Q.** And the GI50 (SR leukemia)?
**A.** 2.63 µM

**Q.** And the TGI (SR leukemia)?
**A.** 19.6 µM

**Q.** And the GI50 (SK-OV-3 ovarian)?
**A.** 0.351 µM

**Q.** What about the TGI (SK-OV-3 ovarian) of the same compound?
**A.** 2.09 µM

**Q.** What about the GI50 (MALME-3M melanoma) of the same compound?
**A.** 0.0161 µM

**Q.** What about the TGI (MALME-3M melanoma) of the same compound?
**A.** 0.0745 µM

**Q.** What about the GI50 (CCRF-CEM leukemia) of the same compound?
**A.** 3.21 µM

**Q.** What about the TGI (CCRF-CEM leukemia) of the same compound?
**A.** 20.9 µM

**Q.** And the GI50 (SNB-75 CNS)?
**A.** 1.11 µM

**Q.** And the TGI (SNB-75 CNS)?
**A.** 3.27 µM

**Q.** And the GI50 (NCI-H460 lung)?
**A.** 2.51 µM

**Q.** What about the TGI (NCI-H460 lung) of the same compound?
**A.** 10.7 µM

**Q.** What about the GI50 (SK-MEL-5 melanoma) of the same compound?
**A.** 0.771 µM

**Q.** And the TGI (SK-MEL-5 melanoma)?
**A.** 3.56 µM

**Q.** What about the GI50 (NCI-H23 lung) of the same compound?
**A.** 0.703 µM

**Q.** And the TGI (NCI-H23 lung)?
**A.** 13.7 µM

**Q.** What about the GI50 (EKVX NSCLC) of the same compound?
**A.** 0.641 µM

**Q.** And the TGI (EKVX NSCLC)?
**A.** 9.42 µM

**Q.** What about the GI50 (U251 CNS) of the same compound?
**A.** 1.2 µM

**Q.** What about the TGI (U251 CNS) of the same compound?
**A.** 14.1 µM

**Q.** What about the GI50 (K-562 leukemia) of the same compound?
**A.** 0.432 µM

**Q.** What about the TGI (K-562 leukemia) of the same compound?
**A.** > 36.3 µM

**Q.** And the GI50 (KM12 colon)?
**A.** 0.0377 µM

**Q.** What about the TGI (KM12 colon) of the same compound?
**A.** 2.61 µM

**Q.** What about the GI50 (HS 578T breast) of the same compound?
**A.** 1.59 µM

**Q.** What about the TGI (HS 578T breast) of the same compound?
**A.** 5.01 µM

**Q.** And the GI50 (A498 renal)?
**A.** 0.295 µM

**Q.** And the TGI (A498 renal)?
**A.** 1.28 µM

**Q.** What about the GI50 (MDA-MB-435) of the same compound?
**A.** 0.109 µM

**Q.** And the TGI (MDA-MB-435)?
**A.** 10.8 µM

**Q.** What about the GI50 (NCI-H226 lung) of the same compound?
**A.** 1.47 µM

**Q.** What about the TGI (NCI-H226 lung) of the same compound?
**A.** 23.6 µM

**Q.** And the GI50 (SF-295 CNS)?
**A.** 2.45 µM

**Q.** What about the TGI (SF-295 CNS) of the same compound?
**A.** 15.3 µM

**Q.** And the GI50 (SF-268 CNS)?
**A.** 1.41 µM

**Q.** And the TGI (SF-268 CNS)?
**A.** 16.3 µM

**Q.** And the GI50 (ACHN renal)?
**A.** 0.26 µM

**Q.** What about the TGI (ACHN renal) of the same compound?
**A.** 10.5 µM

**Q.** What about the GI50 (UO-31 renal) of the same compound?
**A.** 0.479 µM

**Q.** What about the TGI (UO-31 renal) of the same compound?
**A.** 5.56 µM

**Q.** And the GI50 (HCT-116 colon)?
**A.** 0.244 µM

**Q.** And the TGI (HCT-116 colon)?
**A.** 1.42 µM

**Q.** And the GI50 (M14 melanoma)?
**A.** 0.0213 µM

**Q.** What about the TGI (M14 melanoma) of the same compound?
**A.** 0.222 µM

**Q.** And the GI50 (MOLT-4 leukemia)?
**A.** 1.51 µM

**Q.** And the TGI (MOLT-4 leukemia)?
**A.** 8.99 µM

**Q.** And the GI50 (COLO 205 colon)?
**A.** 0.0311 µM

**Q.** And the TGI (COLO 205 colon)?
**A.** 0.351 µM

**Q.** And the GI50 (HCC-2998 colon)?
**A.** 0.199 µM

**Q.** And the TGI (HCC-2998 colon)?
**A.** 5.56 µM

**Q.** What about the GI50 (CAKI-1 renal) of the same compound?
**A.** 0.398 µM

**Q.** What about the TGI (CAKI-1 renal) of the same compound?
**A.** 5.36 µM

**Q.** What about the GI50 (SN12C renal) of the same compound?
**A.** 0.413 µM

**Q.** And the TGI (SN12C renal)?
**A.** 11.4 µM

**Q.** And the GI50 (786-0 renal)?
**A.** 1.58 µM

**Q.** What about the TGI (786-0 renal) of the same compound?
**A.** 9.35 µM

**Q.** What about the GI50 (UACC-62 melanoma) of the same compound?
**A.** 0.0209 µM

**Q.** And the TGI (UACC-62 melanoma)?
**A.** 0.173 µM

**Q.** And the GI50 (HOP-92 NSCLC)?
**A.** 0.0745 µM

**Q.** What about the TGI (HOP-92 NSCLC) of the same compound?
**A.** 0.488 µM

**Q.** What about the GI50 (SK-MEL-28 melanoma) of the same compound?
**A.** 0.035 µM

**Q.** And the TGI (SK-MEL-28 melanoma)?
**A.** 0.465 µM

**Q.** What about the GI50 (HL-60(TB) leukemia) of the same compound?
**A.** 0.2 µM

**Q.** What about the TGI (HL-60(TB) leukemia) of the same compound?
**A.** 1.97 µM

**Q.** And the GI50 (TK-10 renal)?
**A.** 0.231 µM

**Q.** What about the TGI (TK-10 renal) of the same compound?
**A.** 1.67 µM

**Q.** And the GI50 (OVCAR-8 ovarian)?
**A.** 1.33 µM

**Q.** What about the TGI (OVCAR-8 ovarian) of the same compound?
**A.** 11.2 µM

**Q.** What about the GI50 (MDA-MB-231 breast) of the same compound?
**A.** 0.32 µM

**Q.** And the TGI (MDA-MB-231 breast)?
**A.** 1.74 µM

**Q.** And the GI50 (DU-145 prostate)?
**A.** 0.688 µM

**Q.** What about the TGI (DU-145 prostate) of the same compound?
**A.** 6.96 µM

**Q.** And the GI50 (SK-MEL-2 melanoma)?
**A.** 0.229 µM

**Q.** What about the TGI (SK-MEL-2 melanoma) of the same compound?
**A.** 0.876 µM

**Q.** What about the GI50 (NCI/ADR-RES ovarian) of the same compound?
**A.** 2.3 µM

**Q.** And the TGI (NCI/ADR-RES ovarian)?
**A.** 10.7 µM

**Q.** What about the GI50 (SW-620 colon) of the same compound?
**A.** 0.397 µM

**Q.** And the TGI (SW-620 colon)?
**A.** 11.6 µM

**Q.** And the GI50 (NCI-H522 lung)?
**A.** 0.437 µM

**Q.** What about the TGI (NCI-H522 lung) of the same compound?
**A.** 5.09 µM

**Q.** What about the GI50 (IGROV1 ovarian) of the same compound?
**A.** 0.0842 µM

**Q.** What about the TGI (IGROV1 ovarian) of the same compound?
**A.** 1.96 µM

**Q.** And the GI50 (HCT-15 colon)?
**A.** 0.885 µM

**Q.** And the TGI (HCT-15 colon)?
**A.** 10.8 µM
